Calls of active or inactive are those of the source. No cut-off for these calls is given here.
Experiments:
[1] = biological target: T1, Type-1 angiotensin II receptor (Oryctolagus cuniculus) (UniProt P34976); assay: In vitro antagonist activity against Angiotensin II Receptor (Ang II) in isolated rabbit thoracic aorta.; format: functional, tissue-based
T1 sequence (whole entry): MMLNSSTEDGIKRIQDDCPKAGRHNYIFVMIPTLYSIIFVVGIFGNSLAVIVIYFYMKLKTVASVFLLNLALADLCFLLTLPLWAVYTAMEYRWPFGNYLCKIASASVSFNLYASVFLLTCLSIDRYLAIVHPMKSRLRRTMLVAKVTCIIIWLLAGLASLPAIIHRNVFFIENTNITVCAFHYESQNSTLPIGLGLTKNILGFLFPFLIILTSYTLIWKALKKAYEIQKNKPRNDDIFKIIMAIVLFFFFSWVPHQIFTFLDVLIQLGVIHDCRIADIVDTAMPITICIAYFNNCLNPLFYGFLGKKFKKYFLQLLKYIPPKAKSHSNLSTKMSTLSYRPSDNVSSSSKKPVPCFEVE

Rattus norvegicus [2] = assay: Evaluated in vivo for its ability to block the pressor response to Ang II in pithed rats following oral administration; NA means not active at the dose (10 mg/kg) and time tested (4 h); format: functional, organism-based
Rattus norvegicus [3] = assay: Evaluated in vivo for its ability to block the pressor response to Ang II in pithed rats following oral administration.; format: functional

| Compound | pKB [1] | KB (Rattus norvegicus [2]) | KB (Rattus norvegicus [3]) [mg/kg] |
| --- | --- | --- | --- |
| CCCCCC[C@@H](C(=O)N1C[C@@H](Oc2ccc(CC(=O)O)cc2)C[C@H]1C(=O)O)n1cnc(NC(=O)c2ccccc2S(=O)(=O)O)c1 | 8.4 | inactive | – |
| CCCCCCC(C(=O)O)n1cnc2cc(-c3ccccc3S(=O)(=O)O)ccc21 (stereo in doubt; 4) | 7.7 | inactive | – |
| CCCCCCC(C(=O)O)n1cnc2cc(-c3ccccc3S(=O)(=O)O)ccc21 (stereo in doubt) | 5.6 | – | – |
| CCCCCC[C@@H](C(=O)N1C[C@@H](Oc2ccc(CC(=O)O)cc2)C[C@H]1C(=O)O)n1cnc2cc(-c3ccccc3S(=O)(=O)O)ccc21 | 7.8 | – | – |
| CCCCCC[C@@H](C(=O)N1C[C@@H](Oc2ccccc2)C[C@H]1C(=O)O)n1cnc(NC(=O)c2ccccc2S(=O)(=O)O)c1 | 7.6 | – | – |
| CCCCCC[C@H](C(=O)N1C[C@@H](Oc2ccccc2)C[C@H]1C(=O)O)n1cnc(NC(=O)c2ccccc2S(=O)(=O)O)c1 | 9.1 | – | – |
| CCCCCC[C@H](C(=O)N1C[C@@H](Oc2ccc(CC(=O)O)cc2)C[C@H]1C(=O)O)n1cnc(NC(=O)c2ccccc2S(=O)(=O)O)c1 | 9.7 | – | 2.8 |
| CCCCCCC(C(=O)O)n1cnc(NC(=O)c2ccccc2S(=O)(=O)O)c1 (centres undefined) | 7.2 | inactive | – |
| CCCCCC[C@H](C(=O)N1C[C@@H](Oc2ccc(CC(=O)O)cc2)C[C@H]1C(=O)O)n1cnc2cc(-c3ccccc3S(=O)(=O)O)ccc21 | 9 | inactive | – |

— ChEMBL document CHEMBL1128886, “Synthesis and pharmacological evaluation of a novel series of 5-aryl benzimidazole angiotensin II receptor antagonists” (1995)
